This note sets out measurements from US20250129101A1, “Compound, Pharmaceutical Composition Comprising the Same and Method for Treating Cancer Using the Same” (NATIONAL TSING HUA UNIVERSITY, priority 2023, published 2025).

For one experiment, the target named is T1, KIF2C (Homo sapiens, UniProt Q99661).
T1 construct: KIF2C (216-598 a.a.); 6xHis (C); made in house; host or cells: E. coli BL21 (DE3), pET-28a
Put plainly: In vitro validation: KIF2C kinesin activity, malachite green-based phosphate colorimetric assay. It counts as biochemical. The following applies: concentration that inhibits 50% of KIF2C activity. The protocol: (§1) The in vitro validation was performed by measuring KIF2C kinesin activity using malachite green-based phosphate colorimetric assay (BioVision). […] The microtubules from porcine brain tubulin (Cytoskeleton) or purified from HEK293 cells in Free-style medium (293Fs) were dissolved in the BRB80 buffer (80 mM PIPES pH 6.8, 1 mM EGTA, 1 mM MgCl2, 1 mM GTP, 1 mM DTT, and 10% DMSO) at 37° C. for 2 hr. Phosphates released from kinesin-mediated ATP hydrolysis was measured by adding 30 μL of the phosphate colorimetric reagent (BioVision), incubated for 10 min, and then measured with absorbance at 650 nm. […] The cell validation was performed by measuring cytotoxicity in MDA-MB-231 cells. The cells were cultured in a 96-well plate at a confluence of 2000 cells/well with indicates compounds for specific days. When the time was up, the culture medium in the plate was aspirated and replaced with a prepared CellTiter-Glo reagent (Promega)/DMEM mixture (1:1 mix of CellTiter-Glo reagent and serum-supplemented DMEM). After incubation for 10 min, the luminescence was measured with an ELISA plate reader to determine the cell viability.
In vitro kinesin activity was measured using malachite green-based phosphate colorimetric assay (BioVision). […] The microtubules from porcine brain tubulin (Cytoskeleton) or purified from HEK293 cells in Free-style medium (293Fs) were dissolved in the BRB80 buffer (80 mM PIPES pH 6.8, 1 mM EGTA, 1 mM MgCl2, 1 mM GTP, 1 mM DTT, and 10% DMSO) at 37° C. for 2 hr. Phosphates released from kinesin-mediated ATP hydrolysis was measured by adding 30 μL of the phosphate colorimetric reagent (BioVision), incubated for 10 min, and then measured with absorbance at 650 nm.
Constructs of sN+M regions of KIF2C (216-598 a.a.), KIF2A (181-562 a.a.) and KIF2B (171-553 a.a.) with C-terminal 6×His tag were subcloned into pET-28a vector and expressed in BL21 (DE3) E. coli cells (Novartis) cultured in Luria-Bertani medium supplemented with 50 ug/mL kanamycin at 37° C. After induction with 0.8 mM IPTG for 18 hr at 20° C., the cells were pelleted by centrifugation at 6000 rpm for 30 min at 10° C. The collected pellets were resuspended in 30 mL of buffer A (20 mM Tris-HCl pH 7.5, 500 mM NaCl, 10 mM imidazole, 1% CHAPS, and 1 mM PMSF) and next subjected to a high-pressure homogenizer (EmulsiFlex-C3) for cell lysis. After removing the cell debris by centrifugation at 13000 rpm for 30 min at 10° C., the recombinant Kinesin-13 in the supernatant was purified using nickel affinity chromatography. Firstly, the supernatant was applied to the Ni-NTA column (GE Healthcare) pre-equilibrated with buffer A. Secondly, the column was washed with 10× column volumes of buffer A to remove the unwanted proteins. The washed column was then eluted with 10× column volumes of buffer containing increasing concentrations of imidazole (40, 100, 300, 1000 mM), and the majority of the recombinant Kinesin-13 protein was eventually obtained in a fraction of 300 mM imidazole. The fractions containing the recombinant Kinesin-13 were subsequently concentrated in the buffer B (20 mM Tris-HCl pH 7.5, 10 mM imidazole, 50 mM NaCl, 2 mM DTT) using an Amicon® Ultra filter (Millipore) and subjected to cation exchange column (Capto S, GE Healthcare) for further purification. The recombinant Kinesin-13 was then eluted in elution buffer (20 mM Tris-HCl pH 7.5 and 2 mM DTT) containing 400 mM of NaCl and stored at −80° C. for long-term storage.

A further experiment relates to MDA-MB-231 cells. Put plainly: Cell validation: cytotoxicity in MDA-MB-231 cells (CellTiter-Glo). The format is cell-based. The following applies: cytotoxicity in MDA-MB-231 cells; for IC50: Homo sapiens. The protocol: as §1
The cancer cells were cultured in a 96-well plate at a confluence of 1000-2000 cells/well with indicated drugs for specific days. When the time was up, the culture medium in the plate was aspirated and replaced with a prepared CellTiter-Glo reagent/DMEM mixture (1:1 mix of CellTiter-Glo reagent and serum-supplemented DMEM). After incubation for 10 min, the luminescence (proportional to the number of living cells) was measured with an ELISA plate reader to determine the cell viability.
(ATP-based viability assays read luminescence as a measure of living cells.)

Each structure is given as a SMILES string.

T1 sequence (Q99661 216-598): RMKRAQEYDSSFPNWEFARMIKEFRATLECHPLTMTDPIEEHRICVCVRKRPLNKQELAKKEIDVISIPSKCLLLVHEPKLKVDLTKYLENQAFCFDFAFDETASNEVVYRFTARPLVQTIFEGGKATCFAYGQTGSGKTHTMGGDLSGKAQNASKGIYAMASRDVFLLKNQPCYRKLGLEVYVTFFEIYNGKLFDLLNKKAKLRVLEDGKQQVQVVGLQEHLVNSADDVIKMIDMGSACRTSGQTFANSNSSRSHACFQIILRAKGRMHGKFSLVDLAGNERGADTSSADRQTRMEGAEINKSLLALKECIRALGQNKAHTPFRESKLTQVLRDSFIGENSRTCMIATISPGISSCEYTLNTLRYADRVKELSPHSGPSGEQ

As a reminder, the EC50 is the concentration needed to bring the measured effect to its halfway point. A lower EC50 goes with greater potency. By IC50 is commonly meant the concentration needed to halve the response being measured. Higher therefore signals a need for much substance. As to `CCOC(=O)C1=C(C)N=c2s/c(=C\c3ccc(OCC(=O)OC)cc3)c(=O)n2C1c1ccc(Cl)cc1` (centres unmarked) [35S0 (110), ethyl (Z)-5-(4-chlorophenyl)-2-(4-(2-methoxy-2-oxoethoxy)benzylidene)-7-methyl-3-oxo-2,3-dihydro-5H-thiazolo[3,2-a]pyrimidine-6-carboxylate], the EC50 at KIF2C is more than 100 µM. Moreover, the IC50 in the experiment on MDA-MB-231 cells lay in the range of 20 to 50 µM.

Molecule `C#CCOc1ccc(/C=c2\sc3n(c2=O)C(c2ccc(Cl)cc2)C(C(=O)OC(C)C)=C(C)N=3)cc1` (centres unmarked) [36S0 (116), isopropyl (Z)-5-(4-chlorophenyl)-7-methyl-3-oxo-2-(4-(prop-2-yn-1-yloxy)benzylidene)-2,3-dihydro-5H-thiazolo[3,2-a]pyrimidine-6-carboxylate] returned a 50% effective concentration (EC50) on KIF2C of more than 100 µM. This molecule returned an IC50 in the experiment with MDA-MB-231 cells of more than 50 µM.

With `CC1=C(C(=O)OC(C)C)C(c2ccc(Cl)cc2)n2c(s/c(=C\c3ccc(OCc4cnn[nH]4)cc3)c2=O)=N1` (centres unmarked) [37S0 (120), isopropyl (Z)-2-(4-((1H-1,2,3-triazol-5-yl)methoxy)benzylidene)-5-(4-chlorophenyl)-7-methyl-3-oxo-2,3-dihydro-5H-thiazolo[3,2-a]pyrimidine-6-carboxylate], on KIF2C, the EC50 is more than 100 µM. This molecule returned an IC50 in the experiment with MDA-MB-231 cells of more than 50 µM.

`CC1=C(C(=O)OC(C)C)C(c2ccc(Cl)cc2)n2c(s/c(=C\c3ccc(OCC#N)cc3)c2=O)=N1` (centres unmarked) [38S0 (117), isopropyl (Z)-5-(4-chlorophenyl)-2-(4-(cyanomethoxy)benzylidene)-7-methyl-3-oxo-2,3-dihydro-5H-thiazolo[3,2-a]pyrimidine-6-carboxylate] yielded a half-maximal effective concentration (EC50) on KIF2C of more than 100 µM. The IC50 in the experiment on MDA-MB-231 cells is more than 50 µM.

For `CC1=C(C(=O)OC(C)C)C(c2ccc(Cl)cc2)n2c(s/c(=C\c3ccc(OCCCO)cc3)c2=O)=N1` (centres unmarked) [39S0 (118), isopropyl (Z)-5-(4-chlorophenyl)-2-(4-(3-hydroxypropoxy)benzylidene)-7-methyl-3-oxo-2,3-dihydro-5H-thiazolo[3,2-a]pyrimidine-6-carboxylate], the concentration for a half-maximal effect (EC50) on KIF2C is more than 100 µM. In addition, the IC50 in the experiment with MDA-MB-231 cells is more than 50 µM.

Consider `CC1=C(C(=O)OC(C)C)C(c2ccc(Br)cc2)n2c(s/c(=C\c3ccc(OCC(=O)O)cc3)c2=O)=N1` (centres unmarked) [40S0 (40), (4-(((2Z)-5-(4-bromophenyl)-7-methyl-3-oxo-6-((propan-2-yloxy)carbonyl)-5H-[1,3]thiazolo[3,2-a]pyrimidin-2(3H)-ylidene)methyl)phenoxy)acetic acid], for which the concentration giving a half-maximal response (EC50) on KIF2C is less than 20 µM. Also, in the experiment with MDA-MB-231 cells, the 50% inhibitory concentration (IC50) was more than 50 µM.

`COc1ccc(C2C(C(=O)OC(C)C)=C(C)N=c3s/c(=C\c4ccc(OCC(=O)O)cc4)c(=O)n32)cc1` (centres unmarked) [41S0 (60), (Z)-2-(4-((6-(isopropoxycarbonyl)-5-(4-methoxyphenyl)-7-methyl-3-oxo-5H-thiazolo[3,2-a]pyrimidin-2(3H)-ylidene)methyl)phenoxy)acetic acid]: on KIF2C, the EC50 was less than 50 µM. Also, in the experiment on MDA-MB-231 cells, the IC50 is more than 50 µM.

`COc1ccc(C2C(C(=O)OC(C)C)=C(C)N=c3s/c(=C\c4ccc(OCC(=O)N5CCN(C)CC5)cc4)c(=O)n32)cc1` (centres unmarked) [42S0 (61), isopropyl (Z)-5-(4-methoxyphenyl)-7-methyl-2-(4-(2-(4-methylpiperazin-1-yl)-2-oxoethoxy)benzylidene)-3-oxo-2,3-dihydro-5H-thiazolo[3,2-a]pyrimidine-6-carboxylate] registered an EC50 at KIF2C of more than 100 µM. In the experiment on MDA-MB-231 cells, this molecule yielded a 50% inhibitory concentration (IC50) of 20 to 50 µM.

As to `COc1ccc(C2C(C(=O)OC(C)C)=C(C)N=c3s/c(=C\c4ccc(OCC(=O)N5CCC(N6CCN(C)CC6)CC5)cc4)c(=O)n32)cc1` (centres unmarked) [43S0 (62), isopropan-2-yl (2Z)-5-(4-chlorophenyl)-7-methyl-2-(4-(2-(4-(4-methylpiperazin-1-yl)piperidin-1-yl)-2-oxoethoxy)benzylidene)-3-oxo-2,3-dihydro-5H-[1,3]thiazolo[3,2-a]pyrimidine-6-carboxylate], the EC50 on KIF2C was 50 to 100 µM. For the same molecule, in the experiment on MDA-MB-231 cells, the “Cell validation (IC50)” value was “+ + + +”.

Turning to `CCOC(=O)C1=C(C)N=c2s/c(=C\c3ccc(OCC(=O)OC)cc3)c(=O)n2[C@@H]1c1ccc(Cl)cc1` [44S0 (128)], the EC50 on KIF2C is more than 100 µM. The same molecule returned an IC50 with MDA-MB-231 cells of more than 50 µM.

Consider `CCOC(=O)C1=C(C)N=c2s/c(=C\c3ccc(OCC(=O)OC)cc3)c(=O)n2[C@H]1c1ccc(Cl)cc1` [45S0 (129)], for which the EC50 at KIF2C is more than 100 µM. In addition, the half-inhibitory concentration (IC50) in the experiment with MDA-MB-231 cells is more than 50 µM.

Regarding `COC(=O)COc1ccc(/C=c2\sc3n(c2=O)C(c2ccc(Cl)cc2)C(C(=O)OC(C)C)=C(C)N=3)cc1` (centres unmarked) [46S0 (25), isopropyl (Z)-5-(4-chlorophenyl)-2-(4-(2-methoxy-2-oxoethoxy)benzylidene)-7-methyl-3-oxo-2,3-dihydro-5H-thiazolo[3,2-a]pyrimidine-6-carboxylate], the 50% effective concentration (EC50) on KIF2C is more than 100 µM. For the same molecule, the half-inhibitory concentration (IC50) with MDA-MB-231 cells is more than 50 µM.

On to `CC1=C(C(=O)OC(C)C)C(c2ccc(Cl)cc2)n2c(s/c(=C\c3ccc(OC(C)(C)C(=O)O)cc3)c2=O)=N1` (centres unmarked) [47S0 (107), (Z)-2-(4-((5-(4-chlorophenyl)-6-(isopropoxycarbonyl)-7-methyl-3-oxo-5H-thiazolo[3,2-a]pyrimidin-2(3H)-ylidene)methyl)phenoxy)-2-methylpropanoic acid], for which the EC50 at KIF2C is more than 100 µM. Besides, in the experiment with MDA-MB-231 cells, the IC50 was more than 50 µM.

Regarding `CCOC(=O)C1=C(C)N=c2s/c(=C\c3ccc(OCC(=O)N4CCN(C)CC4)cc3)c(=O)n2C1c1ccc(Cl)cc1` (centres unmarked) [49S0 (94)], the EC50 on KIF2C lay in the range of 50 to 100 µM. Further, in the experiment with MDA-MB-231 cells, the “Cell validation (IC50)” value is “+ +”.

As for `CCOC(=O)C1=C(C)N=c2s/c(=C\c3ccc(OCC(=O)N4CCC(N5CCN(C)CC5)CC4)cc3)c(=O)n2C1c1ccc(Cl)cc1` (centres unmarked) [50S0 (99)], the half-maximal effective concentration (EC50) on KIF2C is less than 50 µM. In addition, the “Cell validation (IC50)” value with MDA-MB-231 cells is given as “+ + + +”.

`CC1=C(C(=O)OC(C)C)C(c2ccc(N(C)C)cc2)n2c(s/c(=C\c3ccc(OCC(=O)O)cc3)c2=O)=N1` (centres unmarked) [51S0 (55), (Z)-2-(4-((5-(4-(dimethylamino)phenyl)-6-(isopropoxycarbonyl)-7-methyl-3-oxo-5H-thiazolo[3,2-a]pyrimidin-2(3H)-ylidene)methyl)phenoxy)acetic acid] had an EC50 at KIF2C of 50 to 100 µM. Besides, the IC50 in the experiment on MDA-MB-231 cells was more than 50 µM.

As for `CC1=C(C(=O)OC(C)C)C(c2ccc(-n3ccnc3)cc2)n2c(s/c(=C\c3ccc(OCC(=O)O)cc3)c2=O)=N1` (centres unmarked) [52S0 (45), (Z)-2-(4-((5-(4-(1H-imidazol-1-yl)phenyl)-6-(isopropoxycarbonyl)-7-methyl-3-oxo-5H-thiazolo[3,2-a]pyrimidin-2(3H)-ylidene)methyl)phenoxy)acetic acid], on KIF2C, the EC50 is more than 100 µM. Moreover, the IC50 in the experiment with MDA-MB-231 cells was more than 50 µM.

For `CC1=C(C(=O)OC(C)(C)C)C(c2ccc(Cl)cc2)n2c(s/c(=C\c3ccc(OCC(=O)O)cc3)c2=O)=N1` (centres unmarked) [53S0 (80), (Z)-2-(4-((6-(tert-butoxycarbonyl)-5-(4-chlorophenyl)-7-methyl-3-oxo-5H-thiazolo[3,2-a]pyrimidin-2(3H)-ylidene)methyl)phenoxy)acetic acid], the EC50 at KIF2C lay in the range of 50 to 100 µM. This molecule also displayed an IC50 in the experiment with MDA-MB-231 cells of more than 50 µM.

`CCOC(=O)C1=C(C)N=c2s/c(=C\c3ccc(OCC(=O)O)cc3)c(=O)n2[C@@H]1c1ccc(Cl)cc1` [54S0 (130)] gave an EC50 on KIF2C of 50 to 100 µM. Further, the IC50 in the experiment on MDA-MB-231 cells is more than 50 µM.
